Measurements as given in article PMC12979031 (Neuro-oncology, 2026).

Experiments:
Surgical = assay type: in vivo; settings: human, oral, 60 mg
PARP1/2 = settings: read-out: in vitro IC50 for PARP1/2 inhibition; cited from earlier work
recurrent IDHmt gliomas = settings: second study in this population; cited from earlier work

SMILES	fraction unbound (Surgical; enhancing tumor)	Kp (Surgical; non-enhancing tumor / plasma)	Kp uu (Surgical; non-enhancing tumor / plasma)	fraction unbound (Surgical; non-enhancing tumor)	fraction unbound (Surgical; plasma)	IC50 (PARP1/2)	responses (recurrent IDHmt gliomas)
C[C@]12CCCN1CC1=NNC(=O)c3cc(F)cc4[nH]c2c1c34 [pamiparib]	0.076	0.23	0.92	0.083	0.031	~1 nM	–
O=C(c1cc(Cc2n[nH]c(=O)c3ccccc23)ccc1F)N1CCN(C(=O)C2CC2)CC1 [olaparib]	–	–	–	–	–	–	no responses
